SMILES strings stand for the structures.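 How tested: cells in 96-well plates exposed to compound for 48 hours at five concentrations. At the GI50, growth is halved. At the TGI there is no net growth.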

Here are results for 22 molecules from PubChem BioAssay (NCI).

Assay in all cases: growth of human tumour cells (NCI), 48 h
Test [1] has as its system SF-539 CNS.
Test [2] has as its system OVCAR-8 ovarian.
The test system of test [3] is RXF 393 renal.
Test [4] relates to CCRF-CEM leukemia.
The subject of test [5] is SR leukemia.
Test [6] relates to CAKI-1 renal.
The subject of test [7] is NCI/ADR-RES ovarian.
Test [8] concerns RPMI-8226 leukemia.
Test [9] concerns COLO 205 colon.
Test [10] deals with DU-145 prostate.

On to `C=C1C(=O)OC2C1C(OC(=O)/C(C)=C/C)CC1(C)C(=O)CCC(=C)C21` (stereo not drawn), for which the TGI is 32.1 µM in test [1]; 29.6 µM in test [2]; 11 µM in test [3]; greater than 80.9 µM in test [4]; greater than 28 µM in test [5]; 17.9 µM in [6]. Moreover, the TGI in [7] was 33.8 µM; in test [8], 7.97 µM; in [9] it was 20.3 µM; in test [10], 24.2 µM.

For `Oc1cc2cccc[n+]2c2cccc(Cl)c12`, the GI50 is 71.8 µM in [1]; 26.1 µM in [3]; 26.1 µM in [4]; 67.5 µM in [5]; 40.4 µM in [8]; 26.3 µM in test [9]. In addition, the GI50 in test [10] is 62.3 µM. Besides, the results for the TGI in test [3], in test [4] and in [9] were 74.6 µM, 73.7 µM and 87.3 µM, respectively.

Turning to `[C-]#[O+].[C-]#[O+].[Ir].[O-]c1cccc2cccnc12`, the GI50 in test [1], in test [2], in [3], in test [6] and in test [9] was greater than 100 µM in each case. Further, the TGI in test [1], in test [2], in test [3], in [5], in [6] and in [9] was greater than 100 µM each time.

Turning to `CC(C)C(N=Cc1ccccc1O)C(=O)O` (stereo not drawn), the TGI in [1], in [2], in [4], in test [5], in [6] and in [7] was greater than 100 µM each time. The TGI in test [8], in [9] and in test [10] was greater than 100 µM throughout.

As to `Fc1ccc(-c2ccc(-c3nnc(-c4cc(F)c(Cl)cc4Cl)o3)o2)cc1Cl`, the GI50 is 29.4 µM in test [1]; 31.9 µM in test [2]; 48 µM in test [3]; 35 µM in test [4]; 68.5 µM in test [5]; 33.7 µM in test [6]. Also, the GI50 in test [7] was 35.8 µM; in test [8], 26.4 µM; in test [9], 18.8 µM; in test [10], 29.5 µM. In addition, the TGI is 85.7 µM in test [1]; greater than 100 µM in test [2]; greater than 100 µM in [3]; greater than 100 µM in [4]; greater than 100 µM in [5]; 89.9 µM in test [6]. For the same molecule, the TGI is greater than 100 µM in test [7], 72.9 µM in test [8], 42.8 µM in test [9] and greater than 100 µM in [10].

With `O=C(/C=C/c1ccc(O)cc1)NCCc1ccc(O)cc1`, the TGI was 11.1 µM in test [1]; greater than 12.5 µM in [2]; greater than 12.5 µM in test [3]; 11.4 µM in test [4]; greater than 12.5 µM in test [5]; greater than 12.5 µM in test [6]. Moreover, the TGI in [7], in [8], in test [9] and in test [10] was greater than 12.5 µM each time.

`c1ccc2sc(C3(N4CCCCC4)CCCC3)cc2c1`: the TGI turned out to be 31.7 µM in test [1]; 24.7 µM in test [2]; 30.3 µM in [3]; 17.7 µM in [4]; 22.3 µM in [5]; 38.4 µM in [6]. In addition, the TGI in test [7] is 24.8 µM; in [8], 10.4 µM; in test [9], 19.8 µM; in test [10] it was 24 µM.

As for `O=S(=O)(c1ccc(I)cc1)N(c1ccccc1)S(=O)(=O)C(F)(F)C(F)(F)C(F)(F)C(F)(F)F`, the TGI is greater than 100 µM in test [1]; greater than 100 µM in [2]; 78.6 µM in test [3]; greater than 100 µM in test [4]; greater than 100 µM in [5]; 98.2 µM in [6]. Also, the TGI in test [7], in test [8], in test [9] and in test [10] was greater than 100 µM each time.

Take `C[N+]1(C)CCC(C#N)(c2ccccc2)CC1`: the TGI in test [2], in test [3], in test [4], in test [5], in [6] and in [7] was greater than 100 µM in each case. In addition, the TGI in test [8], in test [9] and in test [10] was greater than 100 µM in each case.

In the case of `CC(=O)OCC1OC(O[C@@H]2c3c(O)c4c(c(O)c3C3=C(NN(c5ccc([N+](=O)[O-])cc5[N+](=O)[O-])[Se]3=O)[C@@]2(C)O)C(=O)c2ccccc2C4=O)C(OC(C)=O)C(OC(C)=O)C1OC(C)=O` (stereo partly drawn), the TGI in test [2] was found to be 0.562 µM; in test [3], 3.81 µM; in [4] it was 1.08 µM; in test [5], 0.502 µM; in test [6], 0.722 µM; in [7] it was 3.86 µM. Moreover, the values for the TGI in test [8], in test [9] and in [10] were 0.372 µM, 0.322 µM and 1.84 µM, respectively.

For `O=S(O)c1cc(Cl)cc(Cl)c1O`, the TGI in test [1], in [3] and in test [4] was greater than 100 µM throughout.

For the molecule `COc1ccc(SC(C)(SC)c2ccccn2)c(OC)n1` (stereo not drawn), the TGI in [1], in test [2], in test [3], in [5], in test [6] and in [7] was greater than 100 µM throughout. Also, the TGI in test [8] is 73.4 µM; in test [9], greater than 100 µM; in test [10] it was greater than 100 µM.

With `O=C1/C(=C\c2ccc(-c3ccc(Cl)cc3Cl)o2)SC2N=C(COc3ccc(Cl)cc3)NN12` (stereo not drawn), the TGI in [1] is greater than 100 µM; in test [2], greater than 100 µM; in test [3], 88 µM; in [4] it was greater than 100 µM; in test [5], greater than 100 µM; in [6], greater than 100 µM. Moreover, the TGI in test [7], in [8], in [9] and in test [10] was greater than 100 µM each time.

As to `N#C/C=C1\C=CC(O)C(O)C1OC1OC(CO)C(O)C(O)C1O` (stereo not drawn), the TGI in test [1], in [2], in test [3], in test [4], in test [6] and in test [7] was greater than 100 µM in each case. In addition, the TGI in test [8], in test [9] and in test [10] was greater than 100 µM in each case.

For `S=C1N(c2ccc(Cl)cc2)C2=C(N=Nc3ccccc3)C(=Nc3ccccc3S2)N1c1ccccn1`, the TGI in test [1] was 30.4 µM; in [2], 28.2 µM; in [4], 22.9 µM; in test [5] it was 29.2 µM; in [6], 26.7 µM; in test [7], 33.4 µM. Besides, the TGI worked out at 43.6 µM in test [8], 25.2 µM in [9] and 27.8 µM in [10].

Regarding `CN(C)Cc1ccc(C(=O)Nc2ccc3ncnc(Nc4ccc(Oc5cccc(F)c5)c(Cl)c4)c3c2)cc1`, the GI50 is 1.6 µM in [1]; 1.5 µM in test [3]; 1.65 µM in test [4]; 1.68 µM in test [6]; 1.67 µM in test [7]; 1.55 µM in test [10]. Moreover, the TGI in [1] came out at 3.04 µM; in test [3], 2.99 µM; in test [4], 4.65 µM; in test [6], 3.15 µM; in test [7], 3.45 µM; in test [10], 2.91 µM.

As to `O=S(=O)(O)c1c(N=Nc2c(O)ccc3ccccc23)ccc2ccccc12`, the TGI in test [2], in test [3], in [4], in test [5], in test [6] and in [7] was greater than 100 µM throughout. The TGI in [8], in test [9] and in [10] was greater than 100 µM throughout.

On to `Nc1nc(SCc2ccccc2)c2ncn(Cc3ccccc3)c2n1`, for which the TGI in test [1] was greater than 100 µM; in test [2] it was greater than 100 µM; in [3] it was greater than 100 µM; in [4] it was greater than 100 µM; in test [5] it was greater than 100 µM; in test [6], greater than 86.5 µM. Further, the TGI in test [7], in test [8], in test [9] and in test [10] was greater than 100 µM throughout.

For the molecule `COC(=O)C1=CC[C@@H]2C(C(=O)O)=CO[C@@H](OC3OC(CO)C(O)C(O)C3O)[C@H]12` (stereo partly drawn), the TGI in [1] is greater than 300 µM; in test [2] it was greater than 300 µM; in test [3] it was greater than 300 µM; in test [4], greater than 119 µM; in test [6], greater than 300 µM; in test [7] it was greater than 300 µM. Also, the TGI in test [8] and in [9] was greater than 300 µM in each case.

Consider `O=C1c2ccccc2-c2ccc(N=[N+]([O-])c3ccc4c(c3)C(=O)c3ccccc3-4)cc21`, for which the TGI in test [2], in [3], in [4], in test [6], in test [7] and in [8] was greater than 100 µM in each case. The TGI in test [9] and in [10] was greater than 100 µM throughout.

With `CC1(C)COC(/C=C/C2=NC(C)(C)CO2)=N1`, the TGI in test [1] is 51.7 µM; in test [2], 51.6 µM; in [3], 34.5 µM; in test [4], 28.8 µM; in test [5], 27.3 µM; in test [6], 23.4 µM. The TGI in test [7] was determined as 84 µM; in test [8], 26.2 µM; in [9], 28.6 µM; in [10], 44.1 µM.

With `S=C(Nc1ccc(Cl)cc1)Nc1ccc(Cl)cc1` (tested in a mixture with another compound), the GI50 is 2 µM in test [1]; 3.26 µM in test [2]; 2.13 µM in [3]; 1.61 µM in test [4]; 2.38 µM in [5]; 2.15 µM in test [6]. For the same molecule, the values for the GI50 in [7], in test [9] and in test [10] were 2.54 µM, 1.9 µM and 4.87 µM, respectively. Besides, the TGI in [1] was 4.84 µM; in [2], greater than 100 µM; in test [3] it was 5.29 µM; in [4], 9.83 µM; in test [5] it was 5.74 µM; in [6], 7.08 µM. Further, the TGI in test [7] was 13.9 µM; in [9], 3.42 µM; in [10], greater than 100 µM.
